Laboratory results published in ChEMBL document CHEMBL1128680, “6-substituted 2,4-diamino-5-methylpyrido[2,3-d]pyrimidines as inhibitors of dihydrofolate reductases from Pneumocystis carinii and Toxoplasma gondii and as antitumor agents” (J Med Chem, 1995).

Tests used:
786-0 = assay: Cytotoxic activity against 786-0 Renal cancer cell line; assay type: functional; settings: Homo sapiens
ACHN = assay: Cytotoxic activity against ACHN Renal cancer cell line; assay type: functional; settings: Homo sapiens
A549 = assay: Cytotoxic activity against A549/ATCC non-small cell-lung cancer cell line; assay type: functional; settings: Homo sapiens
CCRF-CEM = assay: Cytotoxic activity against CCRF-CEM Leukemia cell line; assay type: functional; settings: Homo sapiens
DU-145 = assay: Cytotoxic activity against DU-145 Prostate cancer cell line; assay type: functional; settings: Homo sapiens
HCT-15 = assay: Cytotoxic activity against HCT-15 colon cancer cell line; assay type: functional; settings: Homo sapiens
HCT-116 = assay: Cytotoxic activity against HCT116 colon cancer cell line; assay type: functional; settings: Homo sapiens
HT-29 = assay: Cytotoxic activity against HT-29 colon cancer cell line; assay type: functional; settings: Homo sapiens
IGROV-1 = assay: (§1) Cytotoxic activity against IGROV1 Ovarian cancer cell line; assay type: functional; settings: Homo sapiens
MOLT-4 = assay: Cytotoxic activity against MOLT-4 Leukemia cell line; assay type: functional; settings: Homo sapiens
LOX IMVI = assay: Cytotoxic activity against LOXIMVI Melanoma cell line; assay type: functional; settings: Homo sapiens
MDA-MB-435 = assay: Cytotoxic activity against MDA-MB-435 Breast cancer cell line; assay type: functional; settings: Homo sapiens
MDA-MB-231 = assay: Cytotoxic activity against MDA-MB-231/ATCC Breast cancer cell line; assay type: functional; settings: Homo sapiens
MDA-N [1] = assay: Cytotoxic activity against MDA-N breast cancer cell line; assay type: functional; settings: Homo sapiens
NCI-H460 = assay: Cytotoxic activity against NCI-H460 non-small cell-lung cancer cell line; assay type: functional; settings: Homo sapiens
NCI-H322M = assay: Cytotoxic activity against NCI-H322M non-small cell-lung cancer cell line; assay type: functional; settings: Homo sapiens
PC-3 = assay: Cytotoxic activity against PC-3 Prostate cancer cell line; assay type: functional; settings: Homo sapiens
SR = assay: Cytotoxic activity against SR Leukemia cell line; assay type: functional; settings: Homo sapiens
SF-295 = assay: Cytotoxic activity against SF-295 CNS cancer cell line; assay type: functional; settings: Homo sapiens
SK-MEL-5 = assay: Cytotoxic activity against SK-MEL-5 Melanoma cell line; assay type: functional; settings: Homo sapiens
UACC-62 = assay: Cytotoxic activity against UACC-62 Melanoma cell line; assay type: functional; settings: Homo sapiens
UACC-257 = assay: Cytotoxic activity against UACC-257 Melanoma cell line; assay type: functional; settings: Homo sapiens
U-251 = assay: Cytotoxic activity against U251 CNS cancer cell line; assay type: functional; settings: Homo sapiens
K562 = assay: Cytotoxic activity against K-562 Leukemia cell line; assay type: functional; settings: Homo sapiens
SF-268 = assay: Cytotoxic activity against SF-268 CNS canser cell line; assay type: functional; settings: Homo sapiens
Dihydrofolate reductase [2] = molecular target: T1, Dihydrofolate reductase (Pneumocystis carinii, UniProt P16184)
T1 sequence (P16184 whole entry): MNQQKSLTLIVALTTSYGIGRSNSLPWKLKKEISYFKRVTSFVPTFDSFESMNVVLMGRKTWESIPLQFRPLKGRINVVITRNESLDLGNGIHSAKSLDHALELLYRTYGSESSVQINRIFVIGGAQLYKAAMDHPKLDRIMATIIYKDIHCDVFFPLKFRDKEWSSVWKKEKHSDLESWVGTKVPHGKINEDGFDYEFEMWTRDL
Description: Inhibitory activity against Dihydrofolate reductase from Pneumocystis carinii

[3] = molecular target: T2, Bifunctional dihydrofolate reductase-thymidylate synthase (Toxoplasma gondii, UniProt Q07422)
T2 sequence (Q07422 whole entry): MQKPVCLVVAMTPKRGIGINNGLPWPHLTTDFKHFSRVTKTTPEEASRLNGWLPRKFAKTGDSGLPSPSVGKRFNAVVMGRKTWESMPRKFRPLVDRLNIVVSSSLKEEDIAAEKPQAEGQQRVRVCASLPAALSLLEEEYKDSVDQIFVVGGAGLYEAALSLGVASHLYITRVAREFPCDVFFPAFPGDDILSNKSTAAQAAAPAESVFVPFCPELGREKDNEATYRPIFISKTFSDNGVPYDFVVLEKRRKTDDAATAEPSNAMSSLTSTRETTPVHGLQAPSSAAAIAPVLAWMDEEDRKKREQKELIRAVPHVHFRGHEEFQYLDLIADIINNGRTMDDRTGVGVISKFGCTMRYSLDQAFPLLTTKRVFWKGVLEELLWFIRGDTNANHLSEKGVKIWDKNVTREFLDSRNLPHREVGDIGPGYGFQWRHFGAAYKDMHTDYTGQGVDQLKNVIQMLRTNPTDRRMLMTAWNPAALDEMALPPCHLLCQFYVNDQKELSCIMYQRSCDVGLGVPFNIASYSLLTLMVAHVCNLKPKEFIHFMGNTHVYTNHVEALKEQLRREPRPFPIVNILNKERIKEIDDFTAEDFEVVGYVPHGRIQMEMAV
Description: Inhibitory activity against Dihydrofolate reductase from Toxoplasma gondii

Dihydrofolate reductase [4] = molecular target: T3, Dihydrofolate reductase (Rattus norvegicus, UniProt Q920D2)
T3 sequence (Q920D2 whole entry): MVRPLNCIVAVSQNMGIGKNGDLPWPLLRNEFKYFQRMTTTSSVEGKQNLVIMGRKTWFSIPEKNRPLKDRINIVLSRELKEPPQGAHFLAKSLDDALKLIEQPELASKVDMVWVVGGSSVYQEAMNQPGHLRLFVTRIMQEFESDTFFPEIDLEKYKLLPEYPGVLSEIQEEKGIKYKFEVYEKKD
Description: Inhibitory activity against Dihydrofolate reductase from rat liver

MDA-N [5] = assay: Cytotoxic activity against MDA-N Breast cancer cell line; assay type: functional; settings: Homo sapiens
SW-620 = assay: Cytotoxic activity against SW-620 colon cancer cell line; assay type: functional; settings: Homo sapiens
Toxoplasma gondii = assay: Inhibitory activity against cultured Toxoplasma gondii; assay type: functional, organism-based
[6] = Ratio of the inhibitory concentrations against Toxoplasma gondii […] and Toxoplasma gondii DHFR.
[7] = as §1; assay type: functional; settings: Homo sapiens, IGROV-1

| Compound | GI50 (786-0) [nM] | GI50 (ACHN) [nM] | GI50 (A549) [nM] | GI50 (CCRF-CEM) [nM] | GI50 (DU-145) [nM] | GI50 (HCT-15) [nM] | GI50 (HCT-116) [nM] | GI50 (HT-29) [nM] | GI50 (MOLT-4) [nM] | GI50 (LOX IMVI) [nM] | GI50 (MDA-MB-435) [nM] | GI50 (MDA-MB-231) [nM] | GI50 (PC-3) [nM] | GI50 (SR) [nM] | GI50 (SF-295) [nM] | GI50 (SK-MEL-5) [nM] | IC50 (Dihydrofolate reductase [2]) [nM] | IC50 [3] [nM] | IC50 (Dihydrofolate reductase [4]) [nM] | IC50 (Toxoplasma gondii) [nM] | also measured |
| --- | --- | --- | --- | --- | --- | --- | --- | --- | --- | --- | --- | --- | --- | --- | --- | --- | --- | --- | --- | --- | --- |
| COc1ccc(NCc2cnc3nc(N)nc(N)c3c2C)c(OC)c1 | 588 | 2890 | 635 | 4290 | 2830 | 2200 | 173 | 2380 | 1220 | 3350 | 3530 | 1910 | 852 | 3530 | 1610 | 1150 | 316 | 56.5 | 214 |  | GI50 (IGROV-1): 6270 nM; GI50 (MDA-N [1]): 359 nM; GI50 (NCI-H460): 481 nM; GI50 (NCI-H322M): 50600 nM; GI50 (UACC-62): 126000 nM; GI50 (UACC-257): 100000 nM; GI50 (U-251): 5810 nM; GI50 (K562): 305 nM; GI50 (SF-268): 4170 nM |
| COc1ccc(OC)c(N(C)Cc2cnc3nc(N)nc(N)c3c2C)c1 | 843 | 3750 | 732 | 7150 | 2710 | 2540 | 3970 | 3220 | 3160 | 5820 | 4180 | 764 | 783 | 7450 | 3410 | 1560 | 216 | 30.1 | 407 | 1050 | GI50 (IGROV-1): 5450 nM; GI50 (MDA-N [5]): 6620 nM; GI50 (NCI-H322M): 5560 nM; GI50 (SW-620): 5040 nM; GI50 (UACC-62): 1150 nM; GI50 (UACC-257): 20000 nM; GI50 (U-251): 4210 nM; Ratio [6]: 35; GI50 (K562): 499 nM; GI50 (SF-268): 5910 nM |
| COc1cc(NCc2cnc3nc(N)nc(N)c3c2C)cc(OC)c1 |  |  |  |  |  |  |  |  |  |  |  |  |  |  |  |  | 22.9 | 4.8 | 42.5 | 600 | Ratio [6]: 125 |
| COc1cc(N(C)Cc2cnc3nc(N)nc(N)c3c2C)cc(OC)c1OC |  |  |  |  |  |  |  |  |  |  |  |  |  |  |  |  |  |  |  | 4700 |  |
| COc1ccc(N(C)Cc2cnc3nc(N)nc(N)c3c2C)c(OC)c1 |  |  |  |  |  |  |  |  |  |  |  |  |  |  |  |  | 510 | 38 | 330 | 1730 | Ratio [6]: 46 |
| COc1ccc(N(C)Cc2cnc3nc(N)nc(N)c3c2C)cc1OC |  |  |  |  |  |  |  |  |  |  |  |  |  |  |  |  | 320 | 29 | 44 |  |  |
| CCOc1ccc(OCC)c(N(C)Cc2cnc3nc(N)nc(N)c3c2C)c1 |  |  |  |  |  |  |  |  |  |  |  |  |  |  |  |  | 3100 | 100 | 3000 |  |  |
| COc1cc(OC)cc(N(C)Cc2cnc3nc(N)nc(N)c3c2C)c1 | 630 | 816 | 442 | 536 | 4360 | 2120 | 410 | 5840 | 742 | 1990 | 6930 | 9220 | 594 | 541 | 5150 | 596 | 130 | 58 | 170 |  | GI50 (IGROV-1): 956 nM; GI50 (MDA-N [5]): 527 nM; GI50 (NCI-H460): 544 nM; GI50 (SW-620): 5500 nM; GI50 (UACC-62): 628 nM; GI50 (UACC-257): 620 nM; GI50 (U-251): 529 nM; GI50 (K562): 209 nM; GI50 (SF-268): 717 nM |
| COc1ccc(NCc2cnc3nc(N)nc(N)c3c2C)c2ccccc12 | 55 | 47.9 | 38.4 | 76.6 | 52.1 | 45.6 | 11.7 | 72.3 | 91.1 | 69.4 | 62.1 | 18.8 | 79.8 | 76 | 83.2 | 57.8 | 41 | 23 | 54 | 40 | GI50 [7]: 86.8 nM; GI50 (MDA-N [5]): 42.5 nM; GI50 (NCI-H460): 49.1 nM; GI50 (NCI-H322M): 85 nM; GI50 (SW-620): 79.6 nM; GI50 (UACC-62): 43.2 nM; GI50 (UACC-257): 86.8 nM; GI50 (U-251): 72.9 nM; Ratio [6]: 2; GI50 (K562): 16.1 nM; GI50 (SF-268): 60.4 nM |
